In patent US10682319B2, “Necrosis inhibitors” (National Institute of Biological Sciences, Beijing, priority 2014, dated 2020):

What follows are molecules tested on HT-29 cells (assay: Necrosis assay (TNF-α/Smac mimetic/z-VAD induced necrosis, cell viability by ATP level)). Conditions: HT-29, TNF-α + Smac mimetic + z-VAD, 24 hrs, ATP level; values given as ranges in nM; read-out: EC50 (inhibition of necrosis in HT-29 cells).
Format: cell-based
Method: HT-29 cells were cultured in McCoy's 5 A culture medium (Invitrogen). On day one, HT-29 cells were plated in 96-well assay plates at density of 2,500-3,500 cells per well. On day two, necrosis were induced by adding 20 ng/ml TNF-α (T), 100 nM Smac mimetic (S), and […] z-VAD (Z). At the same time, […] compound from a chemical library of ˜200,000 compounds was delivered into each well. After 24 hrs treatment, cell viability was determined by measuring ATP level using the CellTiter-Glo Luminescent Cell Viability Assay kit. A CellTiter-Glo Assay (Promega) was performed according to the manufacturer's instructions Luminescence was recorded with a PerkinElmer EnSpire Multimode Plate Reader. Survived cells were normalized to those cells treated with DMSO. Nec-1 was used as a positive control for screening necrosis inhibitors. Data are represented as mean±standard deviation of duplicates
Dose-dependent inhibition of necrosis by the compounds in HT-29 cells were determined by measuring ATP levels as described above.
Work on `CCC(C)(C)C(=O)N(C)Cc1ccccc1F` [Compound 13, N-(2-fluorobenzyl)-N,2,2-trimethylbutanamide] yielded an EC50 of 1 to 1000 nM.
Work on `CCC(C)(C)C(=O)N(C)Cc1cccc(C#N)c1` [Compound 17, N-(3-cyanobenzyl)-N,2,2-trimethylbutanamide] yielded an EC50 of 1 to 1000 nM.
Work on `CCC(C)(C)C(=O)N(C)Cc1cccc(Cl)c1` [Compound 18, N-(3-chlorobenzyl)-N,2,2-trimethylbutanamide] yielded an EC50 of 1 to 1000 nM.
`CCC(C)(C)C(=O)N(C)Cc1ccc(F)cc1F` [Compound 24, N-(2,4-difluorobenzyl)-N,2,2-trimethylbutanamide] showed an EC50 of 1 to 1000 nM.
`CCC(C)(C)C(=O)N(C)Cc1cc(F)ccc1F` [Compound 25, N-(2,5-difluorobenzyl)-N,2,2-trimethylbutanamide] was tested, and the EC50 was 1 to 1000 nM.
Work on `CCC(C)(C)C(=O)N(C)Cc1cc(F)cc(F)c1` [Compound 26, N-(3,5-difluorobenzyl)-N,2,2-trimethylbutanamide] yielded an EC50 of 1 to 1000 nM.
With `CCC(C)(C)C(=O)N(C)Cc1ccc(Cl)cc1F` [Compound 27, N-(4-chloro-2-fluorobenzyl)-N,2,2-trimethylbutanamide] the EC50 was 1 to 1000 nM.
`CCC(C)(C)C(=O)N(C)Cc1ccc(OC)cc1F` [Compound 28, N-(2-fluoro-4-methoxybenzyl)-N,2,2-trimethylbutanamide] was tested, and the EC50 was 1 to 1000 nM.
Molecule `CCC(C)(C)C(=O)N(C)CC1CCCCC1` [Compound 39, N-(cyclohexylmethyl)-N,2,2-trimethylbutanamide] has an EC50 of 1 to 1000 nM.
`CCC(C)(C)C(=O)N(C)Cc1cccs1` [Compound 40, N,2,2-trimethyl-N-(thiophen-2-ylmethyl)butanamide] was tested, and the EC50 was 1 to 1000 nM.
`CCC(C)(C)C(=O)N(C)Cc1ccc(C)s1` [Compound 42, N,2,2-trimethyl-N-((5-methylthiophen-2-yl)methyl)butanamide] gave an EC50 of 1 to 1000 nM.
With `CCC(C)(C)C(=O)N(C)Cc1ccco1` [Compound 43, N-(furan-2-ylmethyl)-N,2,2-trimethylbutanamide] the EC50 was 1 to 1000 nM.
Molecule `CCC(C)(C)C(=O)N(C)Cc1ccc(F)c(F)c1F` [Compound 49, N,2,2-trimethyl-N-(2,3,4-trifluorobenzyl)butanamide] has an EC50 of 1 to 1000 nM.
`CCC(C)(C)C(=O)NCc1ccccc1` [Compound 58, N-benzyl-2,2-dimethylbutanamide] showed an EC50 of 1 to 1000 nM.

Same assay, conditions: Homo sapiens, HT-29, 24 h, HT-29, TNF-α + Smac mimetic + z-VAD, 24 hrs, ATP level; values given as ranges in uM; read-out: EC50 (inhibition of necrosis in HT-29 cells)
For `CCC(C)(C)C(=O)NCc1ccccc1F` [Compound 1, N-(2-fluorobenzyl)-2,2-dimethylbutanamide], the EC50 was 1000 to 10000 nM.
`CC(C)(C)C(=O)NCc1ccccc1` [Compound 2, N-benzylpivalamide] showed an EC50 of 1000 to 10000 nM.
`CCC(C)(C)C(=O)NCc1ccccc1Br` [Compound 3, N-(2-bromobenzyl)-2,2-dimethylbutanamide] gave an EC50 of 1000 to 10000 nM.
Molecule `CCC(C)(C)C(=O)NCc1ccccc1C(F)(F)F` [Compound 4, 2,2-dimethyl-N-(2-(trifluoromethyl)benzyl)butanamide] has an EC50 of 1000 to 10000 nM.
With `CCC(C)(C)C(=O)NCc1cccc(F)c1` [Compound 5, N-(3-fluorobenzyl)-2,2-dimethylbutanamide] the EC50 was 1000 to 10000 nM.
`CCC(C)(C)C(=O)NCc1cccc(Br)c1` [Compound 6, N-(3-bromobenzyl)-2,2-dimethylbutanamide] gave an EC50 of 1000 to 10000 nM.
`CCC(C)(C)C(=O)NCc1ccc(F)cc1F` [Compound 7, N-(2,4-difluorobenzyl)-2,2-dimethylbutanamide] gave an EC50 of 1000 to 10000 nM.
For `CCC(C)(C)C(=O)NCc1ccc(F)c(F)c1` [Compound 8, N-(3,4-difluorobenzyl)-2,2-dimethylbutanamide], the EC50 was 1000 to 10000 nM.
With `CCC(C)(C)C(=O)NCc1cccnc1` [Compound 9, 2,2-dimethyl-N-(pyridin-3-ylmethyl)butanamide] the EC50 was 1000 to 10000 nM.
`CCN(Cc1ccccc1F)C(=O)C(C)(C)CC` [Compound 10, N-ethyl-N-(2-fluorobenzyl)-2,2-dimethylbutanamide] showed an EC50 of 1000 to 10000 nM.
`C#CCN(Cc1ccccc1F)C(=O)C(C)(C)CC` [Compound 11, N-(2-fluorobenzyl)-2,2-dimethyl-N-(prop-2-yn-1-yl)butanamide] was tested, and the EC50 was 1000 to 10000 nM.
For `CCC(C)(C)C(=O)N(CCC(C)=O)Cc1ccccc1F` [Compound 12, N-(2-fluorobenzyl)-2,2-dimethyl-N-(3-oxobutyl)butanamide], the EC50 was 1000 to 10000 nM.
`CCC(C)(C)C(=O)N(C)Cc1ccccc1OC` [Compound 15, N-(2-methoxybenzyl)-N,2,2-trimethylbutanamide] gave an EC50 of 1000 to 100000 nM.
`CCC(C)(C)C(=O)N(C)Cc1cccc(Br)c1` [Compound 19, N-(3-bromobenzyl)-N,2,2-trimethylbutanamide] gave an EC50 of 1000 to 10000 nM.
Work on `CCC(C)(C)C(=O)N(C)Cc1cccc(OC)c1` [Compound 20, N-(3-methoxybenzyl)-N,2,2-trimethylbutanamide] yielded an EC50 of 1000 to 100000 nM.
For `CCC(C)(C)C(=O)N(C)Cc1cccc(O)c1` [Compound 21, N-(3-hydroxybenzyl)-N,2,2-trimethylbutanamide], the EC50 was 1000 to 100000 nM.
Work on `CCC(C)(C)C(=O)N(C)Cc1cccc(C(=O)OC)c1` [Compound 23, methyl 3-((N,2,2-trimethylbutanamido)methyl)benzoate] yielded an EC50 of 1000 to 100000 nM.
`CCN(Cc1ccc(F)cc1F)C(=O)C(C)(C)CC` [Compound 29, N-(2,4-difluorobenzyl)-N-ethyl-2,2-dimethylbutanamide] gave an EC50 of 1000 to 10000 nM.
Molecule `CCC(C)(C)C(=O)N(C)Cc1ccc(N2CCCCC2)c([N+](=O)[O-])c1` [Compound 30, N,2,2-trimethyl-N-(3-nitro-4-(piperidin-1-yl)benzyl)butanamide] has an EC50 of 1000 to 100000 nM.
Work on `CCC(C)(C)C(=O)N(C)Cc1cccc(C)c1C` [Compound 31, N-(2,3-dimethylbenzyl)-N,2,2-trimethylbutanamide] yielded an EC50 of 1000 to 100000 nM.
`CCC(C)(C)C(=O)N(C)Cc1cc(C)cc(C)c1` [Compound 32, N-(3,5-dimethylbenzyl)-N,2,2-trimethylbutanamide] showed an EC50 of 1000 to 100000 nM.
Work on `CCC(C)(C)C(=O)N(C)Cc1cccc(OC(F)(F)F)c1F` [Compound 33, N-(2-fluoro-3-(trifluoromethoxy)benzyl)-N,2,2-trimethylbutanamide] yielded an EC50 of 1000 to 100000 nM.
`CCC(C)(C)C(=O)N(C)Cc1ccncc1` [Compound 34, N,2,2-trimethyl-N-(pyridin-4-ylmethyl)butanamide] showed an EC50 of 1000 to 100000 nM.
Molecule `CCC(C)(C)C(=O)N(C)Cc1cccnc1` [Compound 35, N,2,2-trimethyl-N-(pyridin-3-ylmethyl)butanamide] has an EC50 of 1000 to 10000 nM.
Molecule `CCC(C)(C)C(=O)N(C)Cc1ccncc1F` [Compound 36, N-((3-fluoropyridin-4-yl)methyl)-N,2,2-trimethylbutanamide] has an EC50 of 1000 to 100000 nM.
Molecule `CCC(C)(C)C(=O)N(C)Cc1cccnc1OC` [Compound 37, N-((2-methoxypyridin-3-yl)methyl)-N,2,2-trimethylbutanamide] has an EC50 of 1000 to 100000 nM.
With `CCC(C)(C)C(=O)N(C)Cc1ccc(OC)nc1` [Compound 38, N-((6-methoxypyridin-3-yl)methyl)-N,2,2-trimethylbutanamide] the EC50 was 1000 to 100000 nM.
`CCC(C)(C)C(=O)N(C)Cc1sccc1C` [Compound 41, N,2,2-trimethyl-N-((3-methylthiophen-2-yl)methyl)butanamide] gave an EC50 of 1000 to 10000 nM.
`CCC(C)(C)C(=O)N(C)Cc1cnc(C)s1` [Compound 44, N,2,2-trimethyl-N-((2-methylthiazol-5-yl)methyl)butanamide] showed an EC50 of 1000 to 10000 nM.
In the case of `CCC(C)(C)C(=O)N(C)Cc1ccn(C)n1` [Compound 45, N,2,2-trimethyl-N-((1-methyl-1H-pyrazol-3-yl)methyl)butanamide], the EC50 is reported as 1000 to 100000 nM.
Work on `CCC(C)(C)C(=O)N(C)Cc1ccc2ccccc2c1` [Compound 46, N,2,2-trimethyl-N-(naphthalen-2-ylmethyl)butanamide] yielded an EC50 of 1000 to 100000 nM.
With `CCC(C)(C)C(=O)N(C)Cc1cnc2ccccc2c1` [Compound 47, N,2,2-trimethyl-N-(quinolin-3-ylmethyl)butanamide] the EC50 was 1000 to 100000 nM.
`CCC(C)(C)C(=O)N(C)Cc1c(F)cc(F)cc1F` [Compound 48, N,2,2-trimethyl-N-(2,4,6-trifluorobenzyl)butanamide] was tested, and the EC50 was 1000 to 10000 nM.
`CCC(C)(C)C(=O)N(C)Cc1c(F)ccc(C)c1F` [Compound 50, N-(2,6-difluoro-3-methylbenzyl)-N,2,2-trimethylbutanamide] showed an EC50 of 1000 to 10000 nM.
With `CCC(C)(C)C(=O)N(C)Cc1c(F)c(F)cc(F)c1F` [Compound 51, N,2,2-trimethyl-N-(2,3,5,6-tetrafluorobenzyl)butanamide] the EC50 was 1000 to 10000 nM.
`CCC(C)(C)C(=O)NC(C)c1ccccc1` (stereo not shown) [Compound 52, 2,2-dimethyl-N-(1-phenylethyl)butanamide] gave an EC50 of 1000 to 100000 nM.
With `CCC(C)(C)C(=O)N(C)C(C)c1ccccc1` (stereo not shown) [Compound 53, N,2,2-trimethyl-N-(1-phenylethyl)butanamide] the EC50 was 1000 to 100000 nM.
For `CCC(C)(C)C(=O)NC1(c2ccccc2)CC1` [Compound 54, 2,2-dimethyl-N-(1-phenylcyclopropyl)butanamide], the EC50 was 1000 to 100000 nM.
With `CCC(C)(C)C(=O)N(C)C1(c2ccccc2)CC1` [Compound 55, N,2,2-trimethyl-N-(1-phenylcyclopropyl)butanamide] the EC50 was 1000 to 100000 nM.
`CCC(C)(C)C(=O)N(C)Cc1cc(F)ccc1Br` [Compound 56, N-(2-bromo-5-fluorobenzyl)-N,2,2-trimethylbutanamide] showed an EC50 of 1000 to 10000 nM.
In the case of `CCC(C)(C)C(=O)N(C)Cc1cc(F)ccc1C#N` [Compound 57, N-(2-cyano-5-fluorobenzyl)-N,2,2-trimethylbutanamide], the EC50 is reported as 1000 to 10000 nM.
